{"source": "patent US20050271657A1", "about": "“Intermittent treatment regime for organ failure” (Australian Stem Cell Centre Ltd., priority 2004, published 2005)", "origin": "cited, not measured here", "key": {"[1]": {"system": "A II production from angiotensin I (A I)"}, "[2]": {"conditions": "renal transplant patients"}}, "data": [{"smiles": "CCOC(=O)[C@H](CCc1ccccc1)N[C@@H](C)C(=O)N1CCC[C@H]1C(=O)O", "note": "[Enalapril, enalapril]", "values": [{"measurement": "blockage of A II production from angiotensin I at specific glomerular sites", "setting": "[1]", "value": "blockage"}, {"measurement": "anemia", "setting": "[2]", "value": "reversible anemia"}]}]}
